Test results taken from patent US20100298141A1, “SUBSTITUTED PYRIDINE N-OXIDE HERBICIDES” (E. I. DU PONT DE NEMOURS AND COMPANY, priority 2007, published 2010).

How the values were obtained:
[1] = tested on: yellow nutsedge; assay: Test C pre-/postemergence test; type: in vivo, Cyperus esculentus
Summary of the method: (§1)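 Compounds in a non-phytotoxic solvent with surfactant applied preemergence to seeded pots and, at the same time, postemergence to plants 2–18 cm tall (1- to 4-leaf stage). Paddy tests: pots flooded to 3 cm, compound applied into the water, depth held throughout.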

[2] = tested on: common ragweed; assay: Test C pre-/postemergence test; type: in vivo, Ambrosia elation
Summary of the method: as §1

[3] = tested on: kochia; assay: Test C pre-/postemergence test; type: in vivo, Kochia scoparia
Summary of the method: as §1

[4] = tested on: crabgrass; assay: Test A pre-/postemergence greenhouse test; type: in vivo, Digitaria sanguinalis; conditions: for Crabgrass, Large plant response rating: 0 to 100 scale; for Plant response rating, Crabgrass, Large: 0 to 100 scale where 0 is no effect and 100 is complete control
Summary of the method: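 Visual injury ratings, made relative to untreated controls roughly ten days after treatment, cover both preemergence and postemergence application. Compounds in a surfactant-containing non-phytotoxic solvent were sprayed onto the soil surface after sowing and, simultaneously, onto young plants at the one- to two-leaf stage.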

[5] = tested on: naked crabgrass; assay: Test F preemergence test; type: in vivo, Digitaria nuda; conditions: scale 0 to 100
Summary of the method: (§2)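 Visual ratings relative to controls, taken after 14 to 21 days in a greenhouse. Test chemicals, formulated in a surfactant-containing non-phytotoxic solvent mixture, were applied preemergence to sown seeds or postemergence to sugarcane plants.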

[6] = tested on: green foxtail; assay: Test F preemergence test; type: in vivo, Setaria viridis; conditions: scale 0 to 100
Summary of the method: as §2

[7] = tested on: broadleaf signalgrass; assay: Test F preemergence test; type: in vivo, Brachiaria platyphylla; conditions: scale 0 to 100
Summary of the method: as §2

[8] = tested on: itchgrass; assay: Test F preemergence test; type: in vivo, Rottboellia cochinchinensis; conditions: scale 0 to 100
Summary of the method: as §2

[9] = tested on: prickly sida; assay: Test F preemergence test; type: in vivo, Sida spinosa; conditions: scale 0 to 100
Summary of the method: as §2

[10] = tested on: bermudagrass; assay: Test F preemergence test; type: in vivo, Cynodon dactylon; conditions: scale 0 to 100
Summary of the method: as §2

[11] = tested on: pitted morningglory; assay: Test F preemergence test; type: in vivo, Ipomoea lacunosa; conditions: scale 0 to 100
Summary of the method: as §2

[12] = tested on: common ragweed; assay: Test F preemergence test; type: in vivo, Ambrosia elation; conditions: scale 0 to 100
Summary of the method: as §2

[13] = tested on: goosegrass; assay: Test F preemergence test; type: in vivo, Eleusine indica; conditions: scale 0 to 100
Summary of the method: as §2

[14] = tested on: purple nutsedge; assay: Test F preemergence test; type: in vivo, Cyperus rotundus; conditions: scale 0 to 100
Summary of the method: as §2

[15] = 31 g ai/ha, Preemergence, scale 0 to 100
[16] = 62 g ai/ha, preemergence, scale 0 (no effect) to 100 (complete control)
[17] = preemergence, 125 g ai/ha, scale 0 (no effect) to 100 (complete control)
[18] = Postemergence, 500 g ai/ha, 0 is no effect, 100 is complete control
[19] = Preemergence, 125 g ai/ha, 0 no effect, 100 complete control
[20] = 62 g ai/ha, Preemergence, scale 0 to 100
[21] = 125 g ai/ha, preemergence, scale 0 (no effect) to 100 (complete control)
[22] = Postemergence, 62 g ai/ha, scale 0 to 100, 0 no effect, 100 complete control
[23] = Postemergence, 125 g ai/ha, scale 0 to 100, 0 no effect, 100 complete control
[24] = Postemergence, 250 g ai/ha, scale 0 to 100, 0 no effect, 100 complete control
[25] = Preemergence, 31 g ai/ha, scale 0 to 100 (0 no effect, 100 complete control)
[26] = preemergence, 250 g ai/ha, scale 0 (no effect) to 100 (complete control)

Structure (SMILES): Cn1nc(C(F)(F)F)c(CS(=O)(=O)c2cccc[n+]2[O-])c1OC(F)F [Compound 4]
- Nutsedge, Yellow plant response rating [1, 15]: 85
- Nutsedge, Yellow plant response rating [1, 16]: 100
- Plant response rating (0 to 100), Nutsedge, Yellow ([1]; Preemergence, 250 g ai/ha): 100
- Nutsedge, Yellow plant response rating [1, 17]: 100
- Ragweed plant response rating [2, 15]: 70
- Ragweed plant response rating [2, 16]: 100
- Plant response rating (0 to 100), Ragweed ([2]; Preemergence, 250 g ai/ha): 100
- Ragweed plant response rating [2, 17]: 100
- Kochia plant response rating [3, 15]: 0
- Kochia plant response rating [3, 16]: 100
- Plant response rating (0 to 100), Kochia ([3]; Preemergence, 250 g ai/ha): 100
- Kochia plant response rating [3, 17]: 100
- Crabgrass, Large plant response rating ([4]; Postemergence, 125 g ai/ha, 0 is no effect, 100 is complete control): 80
- Crabgrass, Large plant response rating [4, 18]: 80
- Crabgrass, Large plant response rating [4, 19]: 100
- Plant response rating, Crabgrass, Large ([4]; Preemergence, 500 g ai/ha): 100
- Plant response rating, Crabgrass, Naked ([5]; 8 g ai/ha, preemergence): 70
- Crabgrass, Naked plant response rating ([5]; 62 g ai/ha, Preemergence): 100
- Plant response rating, Crabgrass, Naked ([5]; Preemergence, 16 g ai/ha): 70
- Plant response rating, Crabgrass, Naked ([5]; Preemergence, 31 g ai/ha): 100
- Plant response rating, Foxtail, Green ([6]; 8 g ai/ha, preemergence): 0
- Foxtail, Green plant response rating ([6]; 62 g ai/ha, Preemergence): 95
- Plant response rating, Foxtail, Green ([6]; Preemergence, 16 g ai/ha): 35
- Plant response rating, Foxtail, Green ([6]; Preemergence, 31 g ai/ha): 70
- Plant response rating, Signalgrass ([7]; 8 g ai/ha, preemergence): 0
- Plant response rating, Signalgrass ([7]; 16 g ai/ha, preemergence): 15
- Signalgrass plant response rating ([7]; 62 g ai/ha, Preemergence): 80
- Plant response rating, Signalgrass ([7]; Preemergence, 31 g ai/ha): 35
- Plant response rating, Itchgrass ([8]; 8 g ai/ha, preemergence): 0
- Itchgrass plant response rating ([8]; 62 g ai/ha, Preemergence): 100
- Plant response rating, Itchgrass ([8]; Preemergence, 16 g ai/ha): 0
- Plant response rating, Itchgrass ([8]; Preemergence, 31 g ai/ha): 35
- Plant response rating, Prickly Sida ([9]; 8 g ai/ha, preemergence): 0
- Prickly Sida plant response rating ([9]; 62 g ai/ha, Preemergence): 0
- Plant response rating, Prickly Sida ([9]; Preemergence, 16 g ai/ha): 0
- Plant response rating, Prickly Sida ([9]; Preemergence, 31 g ai/ha): 0
- Plant response rating, Bermudagrass ([10]; 8 g ai/ha, preemergence): 20
- Bermudagrass plant response rating ([10]; 62 g ai/ha, Preemergence): 100
- Plant response rating, Bermudagrass ([10]; Preemergence, 16 g ai/ha): 98
- Plant response rating, Bermudagrass ([10]; Preemergence, 31 g ai/ha): 100
- Plant response rating, Morningglory ([11]; 8 g ai/ha, preemergence): 0
- Morningglory plant response rating ([11]; 62 g ai/ha, Preemergence): 0
- Plant response rating, Morningglory ([11]; Preemergence, 16 g ai/ha): 0
- Plant response rating, Morningglory ([11]; Preemergence, 31 g ai/ha): 0
- Plant response rating, Ragweed ([12]; 8 g ai/ha, preemergence): 0
- Ragweed plant response rating ([12]; 62 g ai/ha, Preemergence): 90
- Plant response rating, Ragweed ([12]; Preemergence, 16 g ai/ha): 65
- Plant response rating, Ragweed ([12]; Preemergence, 31 g ai/ha): 75
- Plant response rating, Goosegrass ([13]; 8 g ai/ha, preemergence): 0
- Goosegrass plant response rating ([13]; 62 g ai/ha, Preemergence): 98
- Plant response rating, Goosegrass ([13]; Preemergence, 16 g ai/ha): 80
- Plant response rating, Goosegrass ([13]; Preemergence, 31 g ai/ha): 98
- Plant response rating, Purple Nutsedge ([14]; 8 g ai/ha, preemergence): 0
- Purple Nutsedge plant response rating ([14]; 62 g ai/ha, Preemergence): 80
- Plant response rating, Purple Nutsedge ([14]; Preemergence, 16 g ai/ha): 65
- Plant response rating, Purple Nutsedge ([14]; Preemergence, 31 g ai/ha): 65

Structure (SMILES): Cn1nc(C(F)(F)F)c(C[S+]([O-])c2ccc(Cl)c[n+]2[O-])c1OCC(F)(F)F (racemic) [Compound 62]
- Nutsedge, Yellow plant response rating [1, 20]: 40
- Nutsedge, Yellow plant response rating [1, 21]: 70
- Plant response rating (0 to 100), Nutsedge, Yellow ([1]; Postemergence, 31 g ai/ha): 0
- Plant response rating, Nutsedge, Yellow [1, 22]: 0
- Plant response rating, Nutsedge, Yellow [1, 23]: 0
- Plant response rating, Nutsedge, Yellow [1, 24]: 0
- Plant response rating, Nutsedge, Yellow [1, 25]: 0
- Nutsedge, Yellow plant response rating [1, 26]: 100
- Ragweed plant response rating [2, 20]: 100
- Ragweed plant response rating [2, 21]: 100
- Plant response rating (0 to 100), Ragweed ([2]; Postemergence, 31 g ai/ha): 0
- Plant response rating (0 to 100), Ragweed ([2]; Postemergence, 62 g ai/ha): 0
- Plant response rating, Ragweed [2, 23]: 0
- Plant response rating, Ragweed [2, 24]: 0
- Plant response rating, Ragweed [2, 25]: 100
- Ragweed plant response rating [2, 26]: 100
- Kochia plant response rating [3, 20]: 90
- Kochia plant response rating [3, 21]: 100
- Plant response rating (0 to 100), Kochia ([3]; Postemergence, 31 g ai/ha): 0
- Plant response rating, Kochia [3, 22]: 0
- Plant response rating, Kochia [3, 23]: 0
- Plant response rating, Kochia [3, 24]: 10
- Plant response rating, Kochia [3, 25]: 85
- Kochia plant response rating [3, 26]: 100
- Plant response rating, Crabgrass, Large ([4]; Postemergence, 125 g ai/ha): 80
- Crabgrass, Large plant response rating [4, 18]: 90
- Crabgrass, Large plant response rating [4, 19]: 100
- Plant response rating, Crabgrass, Large ([4]; Preemergence, 500 g ai/ha): 100
- Plant response rating, Crabgrass, Naked ([5]; 16 g ai/ha, preemergence): 90
- Crabgrass, Naked plant response rating ([5]; 62 g ai/ha, Preemergence): 100
- Crabgrass, Naked plant response rating ([5]; 125 g ai/ha, preemergence): 100
- Plant response rating, Crabgrass, Naked ([5]; Preemergence, 31 g ai/ha): 90
- Plant response rating, Foxtail, Green ([6]; 16 g ai/ha, preemergence): 20
- Foxtail, Green plant response rating ([6]; 62 g ai/ha, Preemergence): 80
- Foxtail, Green plant response rating ([6]; 125 g ai/ha, preemergence): 100
- Plant response rating, Foxtail, Green ([6]; Preemergence, 31 g ai/ha): 65
- Plant response rating, Signalgrass ([7]; 16 g ai/ha, preemergence): 40
- Signalgrass plant response rating ([7]; 125 g ai/ha, preemergence): 95
- Plant response rating, Signalgrass ([7]; Preemergence, 62 g ai/ha): 75
- Plant response rating, Signalgrass ([7]; Preemergence, 31 g ai/ha): 40
- Plant response rating, Itchgrass ([8]; 16 g ai/ha, preemergence): 50
- Itchgrass plant response rating ([8]; 62 g ai/ha, Preemergence): 90
- Itchgrass plant response rating ([8]; 125 g ai/ha, preemergence): 98
- Plant response rating, Itchgrass ([8]; Preemergence, 31 g ai/ha): 75
- Plant response rating, Prickly Sida ([9]; 16 g ai/ha, preemergence): 15
- Prickly Sida plant response rating ([9]; 62 g ai/ha, Preemergence): 75
- Prickly Sida plant response rating ([9]; 125 g ai/ha, preemergence): 95
- Plant response rating, Prickly Sida ([9]; Preemergence, 31 g ai/ha): 65
- Plant response rating, Bermudagrass ([10]; 16 g ai/ha, preemergence): 20
- Bermudagrass plant response rating ([10]; 62 g ai/ha, Preemergence): 75
- Bermudagrass plant response rating ([10]; 125 g ai/ha, preemergence): 100
- Plant response rating, Bermudagrass ([10]; Preemergence, 31 g ai/ha): 20
- Plant response rating, Morningglory ([11]; 16 g ai/ha, preemergence): 0
- Morningglory plant response rating ([11]; 62 g ai/ha, Preemergence): 75
- Morningglory plant response rating ([11]; 125 g ai/ha, preemergence): 100
- Plant response rating, Morningglory ([11]; Preemergence, 31 g ai/ha): 75
- Plant response rating, Ragweed ([12]; 16 g ai/ha, preemergence): 60
- Ragweed plant response rating ([12]; 125 g ai/ha, preemergence): 80
- Plant response rating, Ragweed ([12]; Preemergence, 62 g ai/ha): 70
- Plant response rating, Ragweed ([12]; Preemergence, 31 g ai/ha): 60
- Plant response rating, Goosegrass ([13]; 16 g ai/ha, preemergence): 50
- Goosegrass plant response rating ([13]; 62 g ai/ha, Preemergence): 98
- Goosegrass plant response rating ([13]; 125 g ai/ha, preemergence): 100
- Plant response rating, Goosegrass ([13]; Preemergence, 31 g ai/ha): 65
- Plant response rating, Purple Nutsedge ([14]; 16 g ai/ha, preemergence): 0
- Purple Nutsedge plant response rating ([14]; 62 g ai/ha, Preemergence): 65
- Purple Nutsedge plant response rating ([14]; 125 g ai/ha, preemergence): 75
- Plant response rating, Purple Nutsedge ([14]; Preemergence, 31 g ai/ha): 35
